In patent US8952024B2, “Herbicidal pyrimidone derivatives” (E I du Pont de Nemours and Company, priority 2009, dated 2015):

Legend:
Format in all cases: in vivo
[1] = tested on: barnyardgrass (Echinochloa crus-galli); assay: Test A pre-/postemergence plant response
In short: (§1)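 Greenhouse pots of loam/sand received directed preemergence soil sprays or postemergence sprays (plants 2–10 cm, 1–2 leaf stage), compounds formulated in non-phytotoxic solvent with surfactant. Injury was rated visually versus untreated controls after about ten days on a 0 (no effect) to 100 (complete control) scale.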

corn (Zea mays) = assay: Test A pre-/postemergence plant response
In short: as §1

[2] = tested on: giant foxtail (Setaria faberii); assay: Test A pre-/postemergence plant response
In short: as §1

[3] = tested on: large crabgrass (Digitaria sanguinalis); assay: Test A pre-/postemergence plant response
In short: as §1

[4] = tested on: morningglory (Ipomoea spp.); assay: Test A pre-/postemergence plant response
In short: as §1

[5] = tested on: pigweed (Amaranthus retroflexus); assay: Test A pre-/postemergence plant response
In short: as §1

[6] = tested on: velvetleaf (Abutilon theophrasti); assay: Test A pre-/postemergence plant response
In short: as §1

[7] = tested on: wheat (Triticum aestivum); assay: Test A pre-/postemergence plant response
In short: as §1

[8] = tested on: windgrass (Apera spica-venti); assay: Test B postemergence plant response; conditions: for Windgrass plant response rating (0 to 100 scale): 62 g ai/ha, 0 is no effect, 13 to 15 days
In short: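 Visual ratings from 0 (no effect) to 100 (complete control), made against controls 13–15 days after treatment, kept in a greenhouse. Compounds were applied postemergence to potted plants at the 1- to 4-leaf stage (2–18 cm).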

[9] = tested on: barnyardgrass (Echinochloa crus-galli); assay: Test B flooded paddy test; conditions: for Plant response rating, Flood, Barnyardgrass: 250 g ai/ha, flooded paddy test, visual rating on 0 to 100 scale (0 no effect, 100 complete control) after 13 to 15 days; for Plant response rating, Barnyardgrass: Flood (flooded paddy test), 13 to 15 days; for Barnyardgrass plant response rating: Flood, 31 g ai/ha, scale 0 to 100 (0 no effect, 100 complete control)
In short: (§2)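 Seedlings reaching 2 leaves are flooded 3 cm deep; test material is delivered to that water, which stays at the same depth. Plants remain in a greenhouse 13–15 days and are then scored by eye versus controls from 0 to 100.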

[10] = tested on: ducksalad (Heteranthera limosa); assay: Test B flooded paddy test; conditions: for Plant response rating, Flood, Ducksalad: 250 g ai/ha, flooded paddy test, visual rating on 0 to 100 scale (0 no effect, 100 complete control) after 13 to 15 days; for Plant response rating, Ducksalad: Flood (flooded paddy test), 13 to 15 days; for Ducksalad plant response rating: Flood, 31 g ai/ha, scale 0 to 100 (0 no effect, 100 complete control)
In short: as §2

rice (Oryza sativa) = assay: Test B flooded paddy test; conditions: for Plant response rating, Flood, Rice: 250 g ai/ha, flooded paddy test, visual rating on 0 to 100 scale (0 no effect, 100 complete control) after 13 to 15 days; for Plant response rating, Rice: Flood (flooded paddy test), 13 to 15 days; for Rice plant response rating: Flood, 31 g ai/ha, scale 0 to 100 (0 no effect, 100 complete control)
In short: as §2

[11] = tested on: umbrella sedge (Cyperus difformis); assay: Test B flooded paddy test; conditions: for Plant response rating, Flood, Sedge, Umbrella: 250 g ai/ha, flooded paddy test, visual rating on 0 to 100 scale (0 no effect, 100 complete control) after 13 to 15 days; for Plant response rating, Sedge, Umbrella: Flood (flooded paddy test), 13 to 15 days; for Sedge, Umbrella plant response rating: Flood, 31 g ai/ha, scale 0 to 100 (0 no effect, 100 complete control)
In short: as §2

[12] = Postemergence, 125 g ai/ha, 0 to 100 scale where 0 is no effect and 100 is complete control
[13] = Postemergence, 500 g ai/ha, 0 to 100 scale, 0 = no effect, 100 = complete control, approx. ten days
[14] = Preemergence, 125 g ai/ha, 0 to 100 scale, 0 = no effect, 100 = complete control
[15] = Preemergence, 500 g ai/ha, visual injury, 0 to 100 scale (0 no effect, 100 complete control), approx. ten days
[16] = 31 g ai/ha, postemergence, scale 0 to 100, 0 is no effect, 100 is complete control
[17] = postemergence, 100 is complete control
[18] = Postemergence, 250 g ai/ha, scale 0 to 100 (0 no effect, 100 complete control)
[19] = 62 g ai/ha, scale of 0 to 100 where 0 is no effect and 100 is complete control
[20] = 125 g ai/ha, scale 0 to 100, 0 is no effect, 100 is complete control

O=C1CCCC(O)=C1C(=O)c1cnc(C2CCCC2)n(-c2ccccc2)c1=O [Compound 92]
Plant response rating, Barnyardgrass [1, 12]: 80
Plant response rating, Barnyardgrass [1, 13]: 90
Plant response rating, Barnyardgrass [1, 14]: 60
Plant response rating, Barnyardgrass [1, 15]: 100
Plant response rating, Corn (corn (Zea mays); [12]): 0
Plant response rating, Corn (corn (Zea mays); [13]): 20
Plant response rating, Corn (corn (Zea mays); [14]): 0
Plant response rating, Corn (corn (Zea mays); [15]): 0
Plant response rating, Foxtail, Giant [2, 12]: 80
Plant response rating, Foxtail, Giant [2, 13]: 90
Plant response rating, Foxtail, Giant [2, 14]: 70
Plant response rating, Foxtail, Giant [2, 15]: 80
Plant response rating, Crabgrass, Large [3, 12]: 90
Plant response rating, Crabgrass, Large [3, 13]: 90
Plant response rating, Crabgrass, Large [3, 14]: 90
Plant response rating, Crabgrass, Large [3, 15]: 100
Plant response rating, Morningglory [4, 12]: 100
Plant response rating, Morningglory [4, 13]: 100
Plant response rating, Morningglory [4, 14]: 0
Plant response rating, Morningglory [4, 15]: 80
Plant response rating, Pigweed [5, 12]: 100
Plant response rating, Pigweed [5, 13]: 100
Plant response rating, Pigweed [5, 14]: 100
Plant response rating, Pigweed [5, 15]: 100
Plant response rating, Velvetleaf [6, 12]: 100
Plant response rating, Velvetleaf [6, 13]: 100
Plant response rating, Velvetleaf [6, 14]: 90
Plant response rating, Velvetleaf [6, 15]: 100
Plant response rating, Wheat [7, 12]: 0
Plant response rating, Wheat [7, 13]: 0
Plant response rating, Wheat [7, 14]: 0
Plant response rating, Wheat [7, 15]: 0
Plant response rating, Windgrass [8, 16]: 0
Windgrass plant response rating (0 to 100 scale) [8, 17]: 50
Plant response rating, Windgrass [8, 18]: 90
Plant response rating, Flood, Barnyardgrass [9]: 45
Plant response rating, Barnyardgrass [9, 19]: 0
Plant response rating, Barnyardgrass [9, 20]: 20
Barnyardgrass plant response rating [9]: 0
Plant response rating, Flood, Ducksalad [10]: 85
Plant response rating, Ducksalad [10, 19]: 30
Plant response rating, Ducksalad [10, 20]: 70
Ducksalad plant response rating [10]: 20
Plant response rating, Flood, Rice (rice (Oryza sativa)): 40
Plant response rating, Rice (rice (Oryza sativa); [19]): 0
Plant response rating, Rice (rice (Oryza sativa); [20]): 25
Rice plant response rating (rice (Oryza sativa)): 0
Plant response rating, Flood, Sedge, Umbrella [11]: 85
Plant response rating, Sedge, Umbrella [11, 19]: 65
Plant response rating, Sedge, Umbrella [11, 20]: 70
Sedge, Umbrella plant response rating [11]: 65

CCCn1c(-c2ccsc2)ncc(C(=O)C2=C(O)CCCC2=O)c1=O [Compound 93]
Plant response rating, Barnyardgrass [1, 12]: 90
Plant response rating, Barnyardgrass [1, 13]: 90
Plant response rating, Barnyardgrass [1, 14]: 80
Plant response rating, Barnyardgrass [1, 15]: 100
Plant response rating, Corn (corn (Zea mays); [12]): 10
Plant response rating, Corn (corn (Zea mays); [13]): 30
Plant response rating, Corn (corn (Zea mays); [14]): 0
Plant response rating, Corn (corn (Zea mays); [15]): 0
Plant response rating, Foxtail, Giant [2, 12]: 80
Plant response rating, Foxtail, Giant [2, 13]: 90
Plant response rating, Foxtail, Giant [2, 14]: 60
Plant response rating, Foxtail, Giant [2, 15]: 80
Plant response rating, Crabgrass, Large [3, 12]: 90
Plant response rating, Crabgrass, Large [3, 13]: 100
Plant response rating, Crabgrass, Large [3, 14]: 90
Plant response rating, Crabgrass, Large [3, 15]: 100
Plant response rating, Morningglory [4, 12]: 100
Plant response rating, Morningglory [4, 13]: 100
Plant response rating, Morningglory [4, 14]: 80
Plant response rating, Morningglory [4, 15]: 90
Plant response rating, Pigweed [5, 12]: 100
Plant response rating, Pigweed [5, 13]: 100
Plant response rating, Pigweed [5, 14]: 100
Plant response rating, Pigweed [5, 15]: 100
Plant response rating, Velvetleaf [6, 12]: 100
Plant response rating, Velvetleaf [6, 13]: 100
Plant response rating, Velvetleaf [6, 14]: 90
Plant response rating, Velvetleaf [6, 15]: 100
Plant response rating, Wheat [7, 12]: 0
Plant response rating, Wheat [7, 13]: 0
Plant response rating, Wheat [7, 14]: 0
Plant response rating, Wheat [7, 15]: 0
Plant response rating, Windgrass [8, 16]: 5
Windgrass plant response rating (0 to 100 scale) [8, 17]: 10
Plant response rating, Windgrass [8, 18]: 55
Plant response rating, Flood, Barnyardgrass [9]: 85
Plant response rating, Barnyardgrass [9, 19]: 60
Plant response rating, Barnyardgrass [9, 20]: 75
Barnyardgrass plant response rating [9]: 30
Plant response rating, Flood, Ducksalad [10]: 80
Plant response rating, Ducksalad [10, 19]: 55
Plant response rating, Ducksalad [10, 20]: 80
Ducksalad plant response rating [10]: 40
Plant response rating, Flood, Rice (rice (Oryza sativa)): 45
Plant response rating, Rice (rice (Oryza sativa); [19]): 15
Plant response rating, Rice (rice (Oryza sativa); [20]): 20
Rice plant response rating (rice (Oryza sativa)): 0
Plant response rating, Flood, Sedge, Umbrella [11]: 90
Plant response rating, Sedge, Umbrella [11, 19]: 75
Plant response rating, Sedge, Umbrella [11, 20]: 80
Sedge, Umbrella plant response rating [11]: 70
